pIC50: −log10 of the molar value.
How the values were obtained:
[1] = test system: IL-12 stimulated STAT4 phosphorylation on Tyr693 (JAK2/TYK2); assay: JAK2/TYK2 cellular target modulation: IL-12 stimulated phospho-STAT4 in PBMC; assay type: cell-based; conditions: human PBMC, IL-12 1.7 ng/ml; read-out: IL12-STAT4 IC50
Outline: (§1)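 Thawed human PBMC (200,000/well, RPMI/10% FBS) were preincubated with compound for 1 h at 37 °C, added from 10× stocks in 1% DMSO. Stimulation and read-out: IL-2 25 ng/ml, 5 min, pSTAT5 by MSD; IL-12 1.7 ng/ml, 25 min, pSTAT4 by MSD; IFNγ 10 ng/ml, 10 min, pSTAT1 by sandwich ELISA.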

JAK2 = JAK2 (Homo sapiens (Human), UniProt O60674); assay: JAK2 enzyme activity assay (Thermo Fisher SelectScreen, Z-lyte); assay type: biochemical; conditions: read-out: JAK2 Inhibition IC50
Outline: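 IC50 values derive from a 4-parameter logistic fit of emission ratio across an 11-point series ([…] to 0.34 nM, 2% DMSO vehicle). Reaction: 1 h, 0.12-0.5 ng JAK2, […] Tyr 06 in HEPES pH 7.5 buffer with MgCl2, EGTA, BRIJ-35, read by Z-lyte development.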

JAK3 (a.a. 781-1124) = JAK3 (a.a. 781-1124) (Homo sapiens (Human), UniProt P52333); assay: JAK3 enzyme activity assay (SRCtide phosphorylation, Caliper); assay type: biochemical; conditions: 1 uM ATP; read-out: JAK3 Inhibition IC50
Tyk-2 = Tyk-2 (Homo sapiens (Human), UniProt P29597); assay: Tyk-2 enzyme activity assay (Thermo Fisher SelectScreen, Z-lyte); assay type: biochemical; conditions: read-out: Tyk-2 Inhibition IC50
Outline: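 Z-lyte FRET assay: 3.75–15 ng TYK2 with […] Tyr 03 peptide in HEPES pH 7.0, MgCl2, EGTA, BRIJ-35; 1 h reaction, then development reagent. 11-point dose-response, 2% DMSO; IC50 via 4-parameter fit of emission ratio, background without enzyme.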

[2] = test system: IL-2 stimulated STAT5 phosphorylation on Tyr694 (JAK1/3); assay: JAK1/3 cellular target modulation: IL-2 stimulated phospho-STAT5 in PBMC; assay type: cell-based; conditions: human PBMC, IL-2 25 ng/ml; read-out: IL2-STAT5 IC50
Outline: as §1

[3] = test system: IFNγ stimulated STAT1 phosphorylation on Tyr701 (JAK1/2); assay: JAK1/2 cellular target modulation: IFNγ stimulated phospho-STAT1 in PBMC; assay type: cell-based; conditions: human PBMC, IFNγ 10 ng/ml; read-out: Infγ-STAT1 IC50
Outline: as §1

Chain of JAK3 (a.a. 781-1124) (P52333 781-1124): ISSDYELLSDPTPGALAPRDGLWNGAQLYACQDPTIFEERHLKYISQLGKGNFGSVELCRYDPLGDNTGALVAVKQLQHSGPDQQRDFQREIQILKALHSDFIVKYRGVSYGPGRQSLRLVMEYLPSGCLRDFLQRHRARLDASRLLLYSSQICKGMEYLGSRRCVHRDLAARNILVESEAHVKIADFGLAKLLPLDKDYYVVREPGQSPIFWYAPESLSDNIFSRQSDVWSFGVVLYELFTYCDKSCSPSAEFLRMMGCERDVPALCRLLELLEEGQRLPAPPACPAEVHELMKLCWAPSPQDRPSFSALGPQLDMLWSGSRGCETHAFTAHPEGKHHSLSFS
Chain of JAK2 (O60674 whole entry): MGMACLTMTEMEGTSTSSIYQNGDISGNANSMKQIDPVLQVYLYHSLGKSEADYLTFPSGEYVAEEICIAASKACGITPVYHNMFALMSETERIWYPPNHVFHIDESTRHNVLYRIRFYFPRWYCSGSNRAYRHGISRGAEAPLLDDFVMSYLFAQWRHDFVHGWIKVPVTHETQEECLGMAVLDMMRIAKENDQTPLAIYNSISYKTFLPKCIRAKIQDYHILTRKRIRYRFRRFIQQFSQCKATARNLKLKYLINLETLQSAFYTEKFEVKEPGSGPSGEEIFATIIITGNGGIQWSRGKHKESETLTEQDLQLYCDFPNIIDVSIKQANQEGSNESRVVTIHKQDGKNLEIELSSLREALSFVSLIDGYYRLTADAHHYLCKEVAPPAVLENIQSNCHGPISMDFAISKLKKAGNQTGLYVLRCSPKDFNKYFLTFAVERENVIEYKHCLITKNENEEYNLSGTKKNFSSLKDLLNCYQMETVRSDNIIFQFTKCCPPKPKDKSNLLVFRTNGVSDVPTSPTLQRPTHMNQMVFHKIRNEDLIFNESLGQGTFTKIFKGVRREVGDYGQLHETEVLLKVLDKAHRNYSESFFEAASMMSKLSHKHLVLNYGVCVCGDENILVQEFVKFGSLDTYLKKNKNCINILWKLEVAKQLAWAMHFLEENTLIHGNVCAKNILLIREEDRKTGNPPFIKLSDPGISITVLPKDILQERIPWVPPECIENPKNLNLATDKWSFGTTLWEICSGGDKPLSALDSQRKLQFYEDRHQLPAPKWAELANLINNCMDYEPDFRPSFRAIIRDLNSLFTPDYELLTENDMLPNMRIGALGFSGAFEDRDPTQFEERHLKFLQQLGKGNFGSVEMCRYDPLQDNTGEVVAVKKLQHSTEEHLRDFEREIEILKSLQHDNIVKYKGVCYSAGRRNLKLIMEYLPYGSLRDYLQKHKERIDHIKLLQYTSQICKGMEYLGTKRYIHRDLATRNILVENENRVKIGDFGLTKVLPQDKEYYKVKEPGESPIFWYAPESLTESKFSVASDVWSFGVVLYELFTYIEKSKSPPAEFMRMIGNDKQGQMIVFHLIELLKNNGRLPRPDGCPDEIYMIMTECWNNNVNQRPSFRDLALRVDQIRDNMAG
Chain of Tyk-2 (P29597 whole entry): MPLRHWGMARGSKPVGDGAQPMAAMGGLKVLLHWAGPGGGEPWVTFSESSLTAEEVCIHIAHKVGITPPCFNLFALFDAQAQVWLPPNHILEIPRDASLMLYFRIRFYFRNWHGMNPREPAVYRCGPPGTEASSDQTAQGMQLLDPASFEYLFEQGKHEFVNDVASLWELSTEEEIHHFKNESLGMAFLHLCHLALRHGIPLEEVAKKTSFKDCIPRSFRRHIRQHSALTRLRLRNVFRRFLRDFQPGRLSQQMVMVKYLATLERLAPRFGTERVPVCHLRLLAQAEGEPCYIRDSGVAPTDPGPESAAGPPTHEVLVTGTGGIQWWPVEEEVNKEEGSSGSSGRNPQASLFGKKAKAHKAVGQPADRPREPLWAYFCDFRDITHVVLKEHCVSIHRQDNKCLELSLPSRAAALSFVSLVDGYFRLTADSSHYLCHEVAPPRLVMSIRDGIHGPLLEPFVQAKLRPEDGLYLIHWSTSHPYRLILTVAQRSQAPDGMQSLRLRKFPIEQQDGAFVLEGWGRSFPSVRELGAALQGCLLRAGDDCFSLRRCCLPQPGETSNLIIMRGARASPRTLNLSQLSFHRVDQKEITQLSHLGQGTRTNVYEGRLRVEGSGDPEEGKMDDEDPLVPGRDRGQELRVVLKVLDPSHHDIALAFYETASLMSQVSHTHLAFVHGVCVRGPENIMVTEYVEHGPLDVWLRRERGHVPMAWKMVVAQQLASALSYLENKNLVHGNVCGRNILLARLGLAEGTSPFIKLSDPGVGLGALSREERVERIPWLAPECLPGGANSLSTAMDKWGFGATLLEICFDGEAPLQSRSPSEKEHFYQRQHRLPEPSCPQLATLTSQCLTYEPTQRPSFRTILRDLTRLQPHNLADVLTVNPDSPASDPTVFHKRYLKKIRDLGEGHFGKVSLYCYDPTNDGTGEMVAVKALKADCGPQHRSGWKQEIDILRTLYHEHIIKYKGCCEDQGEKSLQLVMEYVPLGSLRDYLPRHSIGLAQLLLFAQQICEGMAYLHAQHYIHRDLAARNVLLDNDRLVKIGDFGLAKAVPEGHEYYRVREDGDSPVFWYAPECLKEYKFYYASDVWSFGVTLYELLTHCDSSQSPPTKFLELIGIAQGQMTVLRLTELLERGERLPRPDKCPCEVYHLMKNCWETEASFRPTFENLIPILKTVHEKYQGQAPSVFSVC

pIC50 [1]: < 6.00
pIC50 (JAK2): ≥ 8.00
pIC50 (JAK3 (a.a. 781-1124)): ≥ 8.00
pIC50 (Tyk-2): ≥ 8.00
pIC50 [2]: ≥ 7.00
pIC50 [3]: ≥ 7.00
SMILES: CNC(=O)c1coc(-c2cnc3[nH]ccc3c2N[C@@H]2C[C@H](C)CN(C(=O)CC#N)C2)n1 [Example 31, 2-(4-(((3R,5S)-1-(2-cyanoacetyl)-5-methylpiperidin-3-yl)amino)-1H-pyrrolo[2,3-b]pyridin-5-yl)-N-methyloxazole-4-carboxamide]
